Assay results taken from patent publication US11028041B2, “Second generation GRP94-selective inhibitors” (University of Kansas, priority 2017, dated 2021).

What was measured:
Hsp90α = Hsp90α (Homo sapiens (Human), UniProt P07900); experiment: Fluorescence polarization assay against Hsp90α; format: binding; details: FITC-GDA tracer, 100 μM highest concentration tested, average of two independent experiments ± SEM, read-out: Apparent Kd Hsp90α
Method: Fluorescence Polarization. The assay was performed in 96-well black, flat-bottom plates with a final volume of 100 μL. 25 μL of assay buffer (20 mM HEPES, pH 7.3, 50 mM KCl, 5 mM MgCl2, 20 mM Na2MoO4, 2 mM DTT, 0.1 mg/mL BGG, and 0.01% NP-40) were added, followed by 25 μL of assay buffer containing 6 nM FITC-GDA (fluorescent tracer, stock in DMSO, diluted in assay buffer) and 50 μL of assay buffer containing 10 nM of either Grp94 or Hsp90α were added to each well. For each plate, wells containing buffer only (background), tracer in buffer only (low polarization control) and protein, tracer, and 1% DMSO (final concentration, high polarization control) were included. Compounds were then added with a final concentration of DMSO=1%. Plates were incubated at 4° C. with rocking for 24 h. […] Polarization values were correlated to % tracer bound and compound concentrations.

Akt = experiment: Western blot analysis, cytosolic Hsp90-dependent client protein Akt; format: cell-based; details: MDA-MB-231, PC3-MM2, SK-MEL-28, A549; 24 h; geldanamycin at 0.5 μM
Method: (§4) Western Blot Analysis. […] Cells were harvested in cold PBS and lysed using MPER (Thermo Scientific) supplemented with protease inhibitors (Roche) according the manufacturer's instructions. Cell lysates were obtained by centrifugation at 15,000 rpm for 10 min at 4° C. Protein concentrations were determined using the Pierce BCA assay kit following the manufacturer's instructions. Equal amounts of protein were separated via gel electrophoresis under reducing conditions (10% acrylamide gels) then transferred to PVDF membranes and immunoblotted with the corresponding primary antibodies. Membranes were then incubated with the correct HRP-labeled secondary antibody, developed with a chemiluminescent substrate, and visualized.

Hsp70 = experiment: Western blot analysis, Hsp70 induction; format: cell-based; details: MDA-MB-231, PC3-MM2, SK-MEL-28, A549; 24 h; geldanamycin at 0.5 μM
Method: as §4

MDA-MB-231 cells [1] = experiment: Anti-proliferation MTS/PMS assay, MDA-MB-231; format: cell-based; details: Homo sapiens, 72 h, average of two independent experiments ± SEM
Method: (§1) Compounds or vehicle were administered in DMSO (1% DMSO final concentration) and the plates were placed back in the incubator. After 72 h, the % viable cells were determined using the MTS/PMS cell proliferation kit (Promega) per the manufacturer's instructions. Cells treated with vehicle were normalized to 100% viable and compound treated wells were adjusted accordingly.

PC3-MM2 cells [2] = experiment: Anti-proliferation MTS/PMS assay, PC3-MM2; format: cell-based; details: Homo sapiens, PC3MM2, 72 h, average of two independent experiments ± SEM
Method: as §1

SK-MEL-28 cells [3] = experiment: Anti-proliferation MTS/PMS assay, SK-MEL-28; format: cell-based; details: Homo sapiens, 72 h, average of two independent experiments ± SEM
Method: as §1

A549 cells [4] = experiment: Anti-proliferation MTS/PMS assay, A549; format: cell-based; details: Homo sapiens, 72 h, average of two independent experiments ± SEM
Method: as §1

MDA-MB-231 cells [5] = details: 500 nM, after 24 h
Method: (§2) Wound Healing Scratch Assay. Cells were counted via Trypan blue exclusion and seeded in 12-well plates at 200,000 cells/mL/well and returned to the incubator for 24 h. Scratches were made with a 0.1-10 μL pipette tip, then cells were washed with PBS and fresh media was added. […] Plates were returned to the incubator until 24 h pictures were taken. Images were processed and % migration determined via ImageJ. All experiments were performed in quadruplicate.

PC3-MM2 cells [6] = details: 500 nM, after 24 h
Method: as §2

SK-MEL-28 cells [7] = experiment: Wound healing scratch assay, SK-MEL-28; format: cell-based; details: after 24 h
Method: (§3) Cell Culture. […] Wound Healing Scratch Assay. […] Images were processed and % migration determined via ImageJ. All experiments were performed in quadruplicate.

A549 cells [8] = experiment: Wound healing scratch assay, A549; format: cell-based; details: 500 nM, 24 h
Method: as §3

Kd (Hsp90α) [µM] | SMILES | other results
2.6 ± 0.6 | COC(=O)c1c(O)cc(O)c(Cl)c1CCc1ccc(OC)cc1Cc1ccccc1 [Compound 17, methyl 2-(2-benzyl-4-methoxyphenethyl)-3-chloro-4,6-dihydroxybenzoate] | 
2.1 ± 0.1 | COC(=O)c1c(O)cc(O)c(Cl)c1CCc1cc(O)ccc1Cc1ccccc1 [Compound 22, methyl 2-(2-benzyl-5-hydroxyphenethyl)-3-chloro-4,6-dihydroxybenzoate] | 
20.7 ± 0.5 | COC(=O)c1c(O)cc(O)c(Cl)c1CCc1ccccc1Cc1ccccc1 [Compound 6, methyl 2-(2-benzylphenethyl)-3-chloro-4,6-dihydroxybenzoate] | 
13.7 ± 1.4 | COC(=O)c1c(O)cc(O)c(Cl)c1CCc1cccc(OC)c1Cc1ccccc1 [Compound 18, methyl 2-(2-benzyl-3-methoxyphenethyl)-3-chloro-4,6-dihydroxybenzoate] | 
> 100 | COC(=O)c1c(O)cc(O)c(Cl)c1CCc1cccc(Cc2ccccc2)c1 [Compound 7, methyl 2-(3-benzylphenethyl)-3-chloro-4,6-dihydroxybenzoate] | 
> 100 | COC(=O)c1c(O)cc(O)c(Cl)c1CCc1ccccc1Cc1ccccc1Cl [Compound 27, methyl 3-chloro-2-(2-(2-chlorobenzyl)phenethyl)-4,6-dihydroxybenzoate] | 
0.34 ± 0.07 | COC(=O)c1c(O)cc(O)c(Cl)c1CCc1ccc(N)cc1Cc1ccccc1 [Compound 20, methyl 2-(4-amino-2-benzylphenethyl)-3-chloro-4,6-dihydroxybenzoate] | 
 | COC1=C2C[C@@H](C)C[C@H](OC)[C@H](O)[C@@H](C)/C=C(\C)[C@H](OC(N)=O)[C@@H](OC)/C=C\C=C(/C)C(=O)NC(=CC1=O)C2=O [geldanamycin, reference compound] | degradation of Akt (Akt): induced the degradation of Akt; induction of Hsp70 (Hsp70): increased the levels of Hsp70
> 100 | CCOc1ccccc1Cc1ccccc1CCc1c(Cl)c(O)cc(O)c1C(=O)OC [Compound 25, methyl 3-chloro-2-(2-(2-ethoxybenzyl)phenethyl)-4,6-dihydroxybenzoate] | 
1 ± 0.1 | COC(=O)c1c(O)cc(O)c(Cl)c1CCc1cc(N)ccc1Cc1ccccc1 [Compound 19, methyl 2-(5-amino-2-benzylphenethyl)-3-chloro-4,6-dihydroxybenzoate] | 
> 100 | COC(=O)c1c(O)cc(O)c(Cl)c1CCc1ccccc1Cc1ccc(Cl)cc1 [Compound 29, methyl 3-chloro-2-(2-(4-chlorobenzyl)phenethyl)-4,6-dihydroxybenzoate] | 
2.2 ± 0.2 | COC(=O)c1c(O)cc(O)c(Cl)c1CCc1cc(OC)ccc1Cc1ccccc1 [Compound 16, methyl 2-(2-benzyl-5-methoxyphenethyl)-3-chloro-4,6-dihydroxybenzoate] | 
2 ± 0.2 | COC(=O)c1c(O)cc(O)c(Cl)c1CCc1cccc(O)c1Cc1ccccc1 [Compound 24, methyl 2-(2-benzyl-3-hydroxyphenethyl)-3-chloro-4,6-dihydroxybenzoate] | 
0.92 ± 0.03 | COC(=O)c1c(O)cc(O)c(Cl)c1CCc1ccc(O)cc1Cc1ccccc1 [Compound 23, methyl 2-(2-benzyl-4-hydroxyphenethyl)-3-chloro-4,6-dihydroxybenzoate] | 
44.6 ± 2 | COC(=O)c1c(O)cc(O)c(Cl)c1CCc1ccccc1Cc1cccc(Cl)c1 [Compound 28, methyl 3-chloro-2-(2-(3-chlorobenzyl)phenethyl)-4,6-dihydroxybenzoate] | 
> 100 | COC(=O)c1c(O)cc(O)c(Cl)c1CCc1ccccc1Cc1ccccc1OC [Compound 26, methyl 3-chloro-4,6-dihydroxy-2-(2-(2-methoxybenzyl)phenethyl)benzoate] | 
 | COC(=O)c1c(O)cc(O)c(Cl)c1CCc1ccccc1Cc1ccc(F)cc1 [Compound 30, methyl 3-chloro-2-(2-(4-fluorobenzyl)phenethyl)-4,6-dihydroxybenzoate] | GI50 (MDA-MB-231 cells [1]): 22.4 ± 1.9 µM; GI50 (PC3-MM2 cells [2]): 18.3 ± 2.3 µM; GI50 (SK-MEL-28 cells [3]): 16.6 ± 1.2 µM; GI50 (A549 cells [4]): 16.7 ± 1.2 µM; % migration (MDA-MB-231 cells [5]): 38-40%; % migration (PC3-MM2 cells [6]): 38-40%; effect on migration (SK-MEL-28 cells [7]): demonstrated a susceptibility to Grp94 inhibition; anti-migratory effect (A549 cells [8]): demonstrated an anti-migratory effect; degradation of Akt (Akt): did not induce the degradation of Akt; induction of Hsp70 (Hsp70): nor did it result in the induction of Hsp70
